Reference: patent US9523100B2, “Pesticidal compositions and related methods” (DOW AGROSCIENCES LLC, priority 2013, dated 2016)
Like-named read-outs stand apart in the source and are kept apart here.

Columns and labels:
[1] = tested on: Green Peach Aphid (GPA) (Myzus persicae) (MYZUPE); experiment: Bioassay for Green Peach Aphid (GPA), foliar spray on cabbage seedlings; type: in vivo; conditions: 72 h, read-out: GPA 200 ppm, % Control (or Mortality) rating
Text: Bioassay for Green Peach Aphid (GPA) (Myzus persicae) (MYZUPE)
The green peach aphid (Myzus persicae) is the most significant aphid pest of peach trees, causing decreased growth, shriveling of the leaves, and the death of various tissues. It is also hazardous because it acts as a vector for the transport of plant viruses, such as potato virus Y and potato leafroll virus to members of the nightshade/potato family Solanaceae, and various mosaic viruses to many other food crops. GPA attacks such plants as broccoli, burdock, cabbage, carrot, cauliflower, daikon, eggplant, green beans, lettuce, macadamia, papaya, peppers, sweet potatoes, tomatoes, watercress, and zucchini, among other plants GPA also attacks many ornamental crops such as carnation, chrysanthemum, flowering white cabbage, poinsettia, and roses. GPA has developed resistance to many pesticides.
Cabbage seedlings grown in 3-inch pots, with 2-3 small (3-5 cm) true leaves, were used as test substrate. The seedlings were infested with 20-50 GPA (wingless adult and nymph stages) one day prior to chemical application. Four pots with individual seedlings were used for each treatment. Test compounds (2 mg) were dissolved in 2 mL of acetone/methanol (1:1) solvent, forming stock solutions of 1000 ppm test compound. The stock solutions were diluted 5× with 0.025% Tween 20 in water to obtain the solution at 200 ppm test compound. A hand-held aspirator-type sprayer was used for spraying a solution to both sides of […] leaves until runoff. Reference plants (solvent check) were sprayed with the diluent only containing 20% by volume of acetone/methanol (1:1) solvent. Treated plants were held in a holding room for three days at approximately 25° C. and ambient relative humidity (RH) prior to grading. Evaluation was conducted by counting the number of live aphids per plant under a microscope. Percent control was measured by using Abbott's correction formula (W. S. Abbott, “A Method of Computing the Effectiveness of an Insecticide” J. Econ. Entomol. 18 (1925), pp. 265-267) as follows. Corrected % Control=100*(X−Y)/X
X=No. of live aphids on solvent check plants and
Y=No. of live aphids on treated plants
Biological Data for Green Peach Aphid (GPA) (MYZUPE) and Sweetpotato Whitefly-Crawler (WF) (BEMITA)” (see table section).
(§1) The mortality efficiency of the pesticidal compounds against GPA and WF insects was determined after treatment.

[2] = tested on: Sweetpotato Whitefly-Crawler (WF) (Bemisia tabaci) (BEMITA); experiment: Insecticidal test for Sweetpotato Whitefly-Crawler (WF) in foliar spray assay on cotton plants; type: in vivo; conditions: 216 h, read-out: WF 200 ppm, % Control (or Mortality) rating
Text: Insecticidal Test for Sweetpotato Whitefly-Crawler (WF) (Bemisia tabaci) (BEMITA) in Foliar Spray Assay
The sweetpotato whitefly (Bemisia tabaci) has been reported as a serious pest of cultivated crops world-wide. It has an extremely wide host range attacking more than 500 species of plants from 63 plant families. Weeds often serve as alternate hosts of crop pests. Direct feeding damage is caused by the piercing and sucking sap from the foliage of plants. This feeding causes weakening and early wilting of the plant and reduces the plant growth rate and yield Indirect damage results by the accumulation of honeydew produced by the whiteflies. Honeydew serves as a substrate for the growth of black sooty mold on leaves and fruit reducing photosynthesis and lessens the market value of the plant or yield. […] The sweetpotato whitefly is considered the most common and important whitefly vector of plant viruses worldwide.
Cotton plants (Gossypium hirsutum) grown in 3-inch pots, with 1 small (4-5 cm) true leaves, were used as test substrate. The plants were infested with 200-400 whitefly eggs 4-5 days prior to chemical application. Four pots with individual plants were used for each treatment. Test compounds (2 mg) were dissolved in 1 mL of acetone solvent, forming stock solutions of 2000 ppm test compound. The stock solutions were diluted 10× with 0.025% Tween 20 in water (diluents) to obtain the solution at 200 ppm test compound. A hand-held aspirator-type sprayer was used for spraying a solution to both sides of cotton leaves until runoff. Reference plants (solvent check) were sprayed with the diluent only containing 10% by volume of acetone solvent. Treated plants were held in a holding room for 9 days at approximately 25° C. and ambient relative humidity (RH) prior to grading. Evaluation was conducted by counting the number of live 3-4 nymph stage per plant under a microscope. Percent control was measured by using Abbott's correction formula (W. S. Abbott, “A Method of Computing the Effectiveness of an Insecticide” J. Econ. Entomol. 18 (1925), pp. 265-267) as follows.
Biological Data for Green Peach Aphid (GPA) (MYZUPE) and Sweetpotato Whitefly-Crawler (WF) (BEMITA)” (see table section). Corrected % Control=100*(X−Y)/X
X=No. of live nymphs on solvent check plants and
Y=No. of live nymphs on treated plants
as §1

[3] = 200 ppm foliar spray on cabbage seedlings, graded after three days, Abbott corrected % control
[4] = 200 ppm foliar spray on cotton plants, graded after 9 days, Abbott corrected % control

Row | Compound | mortality at 200 ppm [1, 3] | mortality at 200 ppm [2, 4] | mortality at 200 ppm ([1]; foliar) | mortality at 200 ppm ([2]; foliar)
1 | CCN(C(=O)CCNC(=O)C1CCN(C(C)=O)CC1)c1cn(-c2cccnc2)nc1Cl [Compound F112, 1-Acetyl-N-(3-((3-chloro-1-(pyridin-3-yl)-1H-pyrazol-4-yl)(ethyl)amino)-3-oxopropyl)piperidine-4-carboxamide] | 0 to 80% | 80 to 100% | – | –
2 | CCN(C(=O)CCN(CC(F)F)C(=O)n1ccnc1)c1cn(-c2cccnc2)nc1Cl [Compound F17, N-(3-((3-chloro-1-(pyridin-3-yl)-1H-pyrazol-4-yl)(ethyl)amino)-3-oxopropyl)-N-(2,2-difluoroethyl)-1H-imidazole-1-carboxamide] | – | – | 0 to 80% | 80 to 100%
3 | CN(CC(=O)N(C)c1cn(-c2cccnc2)nc1Cl)C(=O)OC(C)(C)C [Compound F90, tert-Butyl (2-((3-chloro-1-(pyridin-3-yl)-1H-pyrazol-4-yl)(methyl)amino)-2-oxoethyl)(methyl) carbamate] | – | – | 0 to 80% | 80 to 100%
4 | CCN(C(=O)C1CCN(C(=O)CCC#N)CC1)c1cn(-c2cccnc2)nc1Cl [FA7, N-(3-Chloro-1-(pyridin-3-yl)-1H-pyrazol-4-yl)-1-(3-cyanopropanoyl)-N-ethylpiperidine-4-carboxamide] | 80 to 100% | < 0% | – | –
5 | CCN(C(=O)CNC(=O)OC(C)(C)C)c1cn(-c2cccnc2)nc1Cl [Compound F2, tert-Butyl (2-((3-chloro-1-(pyridin-3-yl)-1H-pyrazol-4-yl)(ethyl)amino)-2-oxoethyl)carbamate] | 80 to 100% | 80 to 100% | – | –
6 | CCN(C(=O)CC1CN(Cc2ccc(C(F)(F)F)cc2)C1=O)c1cn(-c2cccnc2)nc1Cl (stereo not shown) [Compound F14] | 0 to 80% | 80 to 100% | – | –
7 | CCN(C(=O)CCC(=O)N(C)CC#N)c1cn(-c2cccnc2)nc1Cl [Compound F55, N1-(3-Chloro-1-(pyridin-3-yl)-1H-pyrazol-4-yl)-N4-(cyanomethyl)-N1-ethyl-N4-methylsuccinamide] | 0 to 80% | 80 to 100% | – | –
8 | CCN(C(=O)CC1CN(Cc2ccc(C(F)(F)F)nc2)C1=O)c1cn(-c2cccnc2)nc1Cl (stereo not shown) [Compound F117] | 80 to 100% | 80 to 100% | – | –
9 | CCN(C(=O)CN(C)C(=O)OC(C)(C)C)c1cn(-c2cccnc2)nc1Cl [Compound F4, tert-Butyl (2-((3-chloro-1-(pyridin-3-yl)-1H-pyrazol-4-yl)(ethyl)amino)-2-oxoethyl)(methyl)carbamate] | – | – | 80 to 100% | 80 to 100%
10 | CCN(C(=O)CN1CCCC1=O)c1cn(-c2cccnc2)nc1Cl [Compound F124, N-(3-Chloro-1-(pyridin-3-yl)-1H-pyrazol-4-yl)-N-ethyl-2-(2-oxopyrrolidin-1-yl)acetamide] | 80 to 100% | 80 to 100% | – | –
11 | CCN(C(=O)CC/C(=N\OCCCCC(F)(F)F)c1cccs1)c1cn(-c2cccnc2)nc1Cl [FA28, (E)-N-(3-Chloro-1-(pyridin-3-yl)-1H-pyrazol-4-yl)-N-ethyl-4-(thiophen-2-yl)-4-(((5,5,5-trifluoropentyl)oxy)imino)butanamide] | 0 to 80% | 0 to 80% | – | –
12 | CCN(C(=O)C(C)OC(=O)N(C)OC)c1cn(-c2cccnc2)nc1Cl (stereo not shown) [Compound F16, 1-((3-Chloro-1-(pyridin-3-yl)-1H-pyrazol-4-yl)(ethyl)amino)-1-oxopropan-2-yl methoxy(methyl) carbamate] | 80 to 100% | 80 to 100% | – | –
13 | CCN(C(=O)C1CCN(C(=O)C(F)(F)F)C1)c1cn(-c2cccnc2)nc1Cl (stereo not shown) [FA9, N-(3-Chloro-1-(pyridin-3-yl)-1H-pyrazol-4-yl)-N-ethyl-1-(2,2,2-trifluoroacetyl)pyrrolidine-3-carboxamide] | 80 to 100% | < 0% | – | –
14 | O=C1CCCN1CC(=O)N(CC1CC1)c1cn(-c2cccnc2)nc1Cl [Compound F98, N-(3-chloro-1-(pyridin-3-yl)-1H-pyrazol-4-yl)-N-(cyclopropylmethyl)-2-(2-oxopyrrolidin-1-yl)acetamide] | 80 to 100% | 80 to 100% | – | –
15 | CCN(C(=O)CCN)c1cn(-c2cccnc2)nc1Cl [Compound C2, 3-amino-N-(3-chloro-1-(pyridin-3-yl)-1H-pyrazol-4-yl)-N-ethylpropanamide] | 0 to 80% | 80 to 100% | – | –
16 | CCN(C(=O)CCC(=O)NCC1CC1)c1cn(-c2cccnc2)nc1Cl [Compound F70, N1-(3-Chloro-1-(pyridin-3-yl)-1H-pyrazol-4-yl)-N4-(cyclopropylmethyl)-N1-ethylsuccinamide] | 80 to 100% | 80 to 100% | – | –
17 | CC(C)(C)[Si](C)(C)N1CC(CC(=O)O)C1=O (stereo not shown) [Compound C3, 2-(1-(tert-butyldimethylsilyl)-2-oxoacetidin-3-yl)acetic acid] | – | – | 0 to 80% | –
18 | CCN(C(=O)CC/C(C)=N/OCc1c(C)noc1C)c1cn(-c2cccnc2)nc1Cl [FA25, (E/Z)-N-(3-Chloro-1-(pyridin-3-yl)-1H-pyrazol-4-yl)-4-(((3,5-dimethylisoxazol-4-yl)methoxy)imino)-N-ethylpentanamide] | 0 to 80% | – | – | –
19 | CCN(C(=O)CC/C(C)=N/OCC1CC(F)(F)C1)c1cn(-c2cccnc2)nc1Cl [FA21, (E/Z)-N-(3-Chloro-1-(pyridin-3-yl)-1H-pyrazol-4-yl)-4-(((3,3-difluorocyclobutyl)methoxy)imino)-N-ethylpentanamide] | 0 to 80% | – | – | –
20 | CCN(C(=O)CC/C(C)=N/OCc1ncc(C(F)(F)F)cc1Cl)c1cn(-c2cccnc2)nc1Cl [FA24, (E/Z)-N-(3-Chloro-1-(pyridin-3-yl)-1H-pyrazol-4-yl)-4-(((3-chloro-5-(trifluoromethyl)pyridin-2-yl)methoxy)imino)-N-ethylpentanamide] | 0 to 80% | – | – | –
21 | C=CCC(C)C(=O)N(CC)c1cn(-c2cccnc2)nc1Cl (stereo not shown) [CA1, N-[3-Chloro-1-(3-pyridyl)pyrazol-4-yl]-N-ethyl-2-methyl-pent-4-enamide] | 80 to 100% | – | – | –
22 | CCN(C(=O)C(C)C/C(C)=N/OCCC1CC1(F)F)c1cn(-c2cccnc2)nc1Cl (stereo not shown) [FA58, (E)-N-(3-Chloro-1-(pyridin-3-yl)-1H-pyrazol-4-yl)-4-((2-(2,2-difluorocyclopropyl)ethoxy)imino)-N-ethyl-2-methylpentanamide] | 80 to 100% | – | – | –
23 | CC(C)(C)[Si](C)(C)N1CC(CCC(=O)O)C1=O (stereo not shown) [Compound C4, 3-(1-(tert-Butyldimethylsilyl)-2-oxoazetidin-3-yl)propanoic acid] | – | – | 0 to 80% | –
24 | CCN(C(=O)CC/C(C)=N/OCc1noc(C(C)(C)C)n1)c1cn(-c2cccnc2)nc1Cl [FA23, (E/Z)-4-(((5-(tert-Butyl)-1,2,4-oxadiazol-3-yl)methoxy)imino)-N-(3-chloro-1-(pyridin-3-yl)-1H-pyrazol-4-yl)-N-ethylpentanamide] | 0 to 80% | – | – | –
